# Assay: in vitro
# Settings: human, hela cells, % viability
smiles,measurement,setting,value
Cc1ccc(/C=C2\SC(=S)N(CCCC(=O)N3CCC(Cc4ccccc4)CC3)C2=O)cc1 [CBK264356],"viability at 28.5 h, 10 µM",,101%
O=C(Cn1nnc(-c2ccccc2)n1)Nc1ccccc1C(=O)O [CBK264358],"viability at 28.5 h, 10 µM",,103%
COc1ccc(-n2nc3cc(C)c(NC(=S)NC(=O)/C=C/c4ccco4)cc3n2)cc1 [CBK264359],"viability at 28.5 h, 10 µM",,109%
O=C(COc1ccccc1)NC(=S)Nc1cccc(-c2nc3ccccc3s2)c1 [CBK264360],"viability at 28.5 h, 10 µM",,107%
O=[N+]([O-])c1ccc(N2CCN(S(=O)(=O)c3ccc4ccccc4c3)CC2)cc1NC1CC1 [CBK264361],"viability at 28.5 h, 10 µM",,111%
NS(=O)(=O)c1ccc(CCNC(=O)c2cc(-c3ccccc3)nc3ccccc23)cc1 [CBK264365],"viability at 28.5 h, 10 µM",,96.9%
O/N=C1/CCCCCC1NO (stereo not drawn) [CBK264368A],"viability at 28.5 h, 10 µM",,107%
Cc1[nH]c2ccccc2c1-c1csc(-c2ccncc2)n1 [CBK264371],"viability at 28.5 h, 10 µM",,96.8%
CC(=O)Oc1ccc(C(=O)NCc2ccc3c(c2)OCO3)cc1 [CBK264372],"viability at 28.5 h, 10 µM",,91.2%
Cc1ccc(O)c(NC(=S)NC(=O)COc2ccccc2)c1 [CBK264373],"viability at 28.5 h, 10 µM",,106%
CCCCOc1ccc(S(=O)(=O)Nc2ccc(-c3cn4ccccc4n3)cc2)cc1 [CBK264374],"viability at 28.5 h, 10 µM",,88.9%
NS(=O)(=O)c1ccc(CCNC(=O)CN2C(=O)c3ccccc3C2=O)cc1 [CBK264377],"viability at 28.5 h, 10 µM",,96%
CC(C)(c1ccccc1)c1ccc(OCCOc2ccc(/C=C3\SC(=S)NC3=O)cc2)cc1 [CBK264378],"viability at 28.5 h, 10 µM",,91%
NS(=O)(=O)c1ccc(CCNC(=O)/C=C/c2ccccc2Cl)cc1 [CBK264379],"viability at 28.5 h, 10 µM",,94%
O=C(COc1ccccc1)NC(=S)Nc1cc(-c2nc3ncccc3o2)ccc1Cl [CBK264380],"viability at 28.5 h, 10 µM",,89.3%
O=S(=O)(c1ccc(Cl)cc1)N1CCN(CC(O)Cn2c3ccccc3c3ccccc32)CC1 (stereo not drawn) [CBK264383],"viability at 28.5 h, 10 µM",,105%
CCOc1ccc(NCCCCO)cc1 [CBK264386],"viability at 28.5 h, 10 µM",,92%
OCc1ccccc1CN1CCOCC1 [CBK264388C],"viability at 28.5 h, 10 µM",,83.3%
NS(=O)(=O)c1ccc(CCNC(=O)C2c3ccccc3Oc3ccccc32)cc1 [CBK264389],"viability at 28.5 h, 10 µM",,104%
Cc1cc(C(=O)NCCc2ccc(S(N)(=O)=O)cc2)ccc1[N+](=O)[O-] [CBK264390],"viability at 28.5 h, 10 µM",,105%
O=C(/C=C/c1cccc([N+](=O)[O-])c1)NC(=S)Nc1ccc(-c2nc3ncccc3o2)cc1 [CBK264391],"viability at 28.5 h, 10 µM",,99.2%
NS(=O)(=O)c1ccc(CCNC(=O)c2ccccc2Oc2ccccc2)cc1 [CBK264394],"viability at 28.5 h, 10 µM",,89.4%
O=[N+]([O-])c1c(N2CCN(CCO)CC2)ccc2nonc12 [CBK264397],"viability at 28.5 h, 10 µM",,96%
Cc1cc(C)nc(Sc2nnc(-c3ccc(C)c(S(=O)(=O)N4CCOCC4)c3)c3ccccc23)n1 [CBK264400],"viability at 28.5 h, 10 µM",,105%
CCc1cc2c3c(c(=O)oc2cc1OCc1cc(C(=O)O)oc1C)CCCC3 [CBK264402],"viability at 28.5 h, 10 µM",,98.8%
Cc1ccccc1C(=O)NC(=S)Nc1sc2c(c1C#N)CCCC2 [CBK264403],"viability at 28.5 h, 10 µM",,98.3%
COc1cc(/C=C/C(=O)O)cc(S(=O)(=O)N2CCc3ccccc3C2)c1OC [CBK264406],"viability at 28.5 h, 10 µM",,96.8%
Cc1cc(C)n(-c2cc(N3CCN(S(=O)(=O)Cc4ccccc4)CC3)ccc2[N+](=O)[O-])n1 [CBK264407],"viability at 28.5 h, 10 µM",,115%
Cc1ccc(-c2nnc(S)n2/N=C\c2ccccc2OCC(=O)O)cc1 [CBK264408],"viability at 28.5 h, 10 µM",,90.7%
CCN1CCN(c2ccc([N+](=O)[O-])cc2S(=O)(=O)N2CCOCC2)CC1 [CBK264410],"viability at 28.5 h, 10 µM",,113%
CCN(CC)CCn1c(OC)cc(=O)[nH]c1=O [CBK264411],"viability at 28.5 h, 10 µM",,97.5%
O=C(COC(=O)C1CCN(S(=O)(=O)c2cccc3cccnc23)CC1)c1ccc([N+](=O)[O-])cc1 [CBK264412],"viability at 28.5 h, 10 µM",,101%
O=C1C2C3C=CC(C3)C2C(=O)N1CCNCCO (stereo not drawn) [CBK264414],"viability at 28.5 h, 10 µM",,93%
O=[N+]([O-])c1ccc(N2CCN(S(=O)(=O)c3ccccc3)CC2)cc1NCc1cccnc1 [CBK264415],"viability at 28.5 h, 10 µM",,96.5%
O=C1NC(=O)N(c2ccc(Cl)cc2)C(=O)/C1=C\NC(CO)(CO)CO [CBK264421],"viability at 28.5 h, 10 µM","bulk resorufin, single well",99.7%
O=C(Nc1ccc(Cl)cc1)c1ccc(N2CCN(Cc3ccccc3)CC2)c([N+](=O)[O-])c1 [CBK264422],"viability at 28.5 h, 10 µM",,103%
Cc1sc2nc(SCC(=O)NCCO)nc(N)c2c1C [CBK264423],"viability at 28.5 h, 10 µM",,109%
Cc1sc2nc(SCCCN3C(=O)c4cccc5cccc(c45)C3=O)nc(N)c2c1C [CBK264424],"viability at 28.5 h, 10 µM",,76.6%
Cc1ccc(C)n1-c1ccc(C(=O)OCC(=O)c2cccc([N+](=O)[O-])c2)cc1 [CBK264427],"viability at 28.5 h, 10 µM",,97.8%
Cn1c(CSc2nc3sc4c(c3c(=O)[nH]2)CCCC4)nnc1SC/C=C/c1ccccc1 [CBK264428],"viability at 28.5 h, 10 µM",,107%
COC(=O)c1c(NC(=O)CC2Sc3ccccc3NC2=O)sc(C)c1C (stereo not drawn) [CBK264429],"viability at 28.5 h, 10 µM",,103%
O=C(OCc1ccc([N+](=O)[O-])cc1)C1CCN(S(=O)(=O)c2cccc3cccnc23)CC1 [CBK264430],"viability at 28.5 h, 10 µM",,115%
O=C1NC(=O)N(Cc2ccccc2)C(=O)/C1=C\NC(CO)(CO)CO [CBK264431],"viability at 28.5 h, 10 µM","bulk resorufin, single well",104%
COc1cccc(Nc2nnc(-c3cc4cc(OC)ccc4oc3=O)s2)c1 [CBK264432],"viability at 28.5 h, 10 µM",,94.1%
O=C(COC(=O)C1CCN(S(=O)(=O)c2cccc3cccnc23)CC1)c1cccc([N+](=O)[O-])c1 [CBK264435],"viability at 28.5 h, 10 µM",,97%
Cc1ccc(-c2nc3ccc(C)cc3c(C(=O)OCC(=O)c3cccc([N+](=O)[O-])c3)c2C)cc1 [CBK264436],"viability at 28.5 h, 10 µM",,104%
COc1cccc(/C=C2/SC(=S)NC2=O)c1OCCCOc1ccccc1C [CBK264442],"viability at 28.5 h, 10 µM",,98.9%
NC(=O)c1ccc(NCCCN2CCOCC2)c([N+](=O)[O-])c1 [CBK264443],"viability at 28.5 h, 10 µM",,104%
CCOc1cc(C(c2c[nH]c3ccccc23)c2c[nH]c3ccccc23)ccc1OCC(=O)O [CBK264450],"viability at 28.5 h, 10 µM",,97.1%
CCOc1cc(/C=C/c2ccc3cccc(O)c3n2)cc(Br)c1O [CBK264451],"viability at 28.5 h, 10 µM",,95%
CSc1nnc2c(n1)OC(/C=C/c1ccccc1)N(C(C)=O)c1ccccc1-2 (stereo not drawn) [CBK264453],"viability at 28.5 h, 10 µM",,99.7%
Cc1ccc(S(=O)(=O)N(C)CCCC(=O)n2cnc3ccccc32)cc1 [CBK264457],"viability at 28.5 h, 10 µM",,104%
CCc1cc2c(=O)c(-c3cnn(-c4ccccc4)c3)c(C(F)(F)F)oc2c(CN2CCCCC2)c1O [CBK264458],"viability at 28.5 h, 10 µM",,91.7%
Cc1n[nH]c(-c2ccc(OCc3cnn(-c4ccccc4)c3)cc2O)c1Oc1ccc(F)cc1 [CBK264461],"viability at 28.5 h, 10 µM",,116%
CC(=O)Nc1ccc(NC(=O)CSC2=C(C#N)C(c3ccco3)C3=C(CCCC3=O)N2)cc1 (stereo not drawn) [CBK264462],"viability at 28.5 h, 10 µM",,91.8%
COc1ccc(C2C(C(=O)c3ccc(C)cc3)=C(O)C(=O)N2CCN(C)C)cc1OC (stereo not drawn) [CBK264463],"viability at 28.5 h, 10 µM",,90.1%
Cc1ccc(NC(=O)CN2C(=O)S/C(=C\c3cc(C)n(-c4ccc(C(=O)O)cc4)c3C)C2=O)cc1 [CBK264465],"viability at 28.5 h, 10 µM",,91.6%
Cc1cc(C)n(CC(O)CN(c2ccccc2)S(=O)(=O)c2ccccc2)n1 (stereo not drawn) [CBK264469],"viability at 28.5 h, 10 µM",,118%
CC1CCN(S(=O)(=O)c2cc(C(=O)OCC(=O)c3ccccc3)c(Cl)cc2Cl)CC1 [CBK264470],"viability at 28.5 h, 10 µM",,95.6%
CN(C)CCNc1nc(-c2cccnc2)nc2ccccc12 [CBK264471C],"viability at 28.5 h, 10 µM",,99.7%
CCC(NS(=O)(=O)c1ccc(Br)cc1)C(=O)O (stereo not drawn) [CBK264472],"viability at 28.5 h, 10 µM",,97%
COc1ccc(C2=NN(c3ccc([N+](=O)[O-])cc3)C(=O)/C2=C\c2cccc(OC)c2OC)cc1 [CBK264475],"viability at 28.5 h, 10 µM",,96%
C=CCn1c(SCC(=O)Nc2sc3c(c2C#N)CCC3)nc2scc(-c3ccccc3)c2c1=O [CBK264477],"viability at 28.5 h, 10 µM",,104%
O=C(Oc1ccc2c(=O)c(Oc3ccc(-c4ccccc4)cc3)coc2c1)c1cccnc1 [CBK264479],"viability at 28.5 h, 10 µM",,97.6%
CCCC12CN3CC(CCC)(CN(C1)C3c1ccc([N+](=O)[O-])cc1)C2=O (stereo not drawn) [CBK264481],"viability at 28.5 h, 10 µM",,101%
COC(=O)c1ccc(/C=N/N=C2\NC(=O)C(CC(=O)Nc3ccccc3)S2)cc1 (stereo not drawn) [CBK264483],"viability at 28.5 h, 10 µM",,93.6%
COCCN1C(=O)/C(=C2/C(=O)N(CC(=O)Nc3ccccc3)c3ccccc32)SC1=S [CBK264489],"viability at 28.5 h, 10 µM",,91.3%
O=C1CC(c2ccccc2)CC(NCc2ccccc2)=C1C(=S)Nc1ccccc1 (stereo not drawn) [CBK264491],"viability at 28.5 h, 10 µM",,104%
CC1(C)CC(=O)C(C(=S)Nc2ccccc2)=C(NCc2ccccc2)C1 [CBK264498],"viability at 28.5 h, 10 µM",,91.6%
O=C(CC1S/C(=N/N=C/c2ccc(-c3ccc(Br)cc3)o2)NC1=O)Nc1ccccc1 (stereo not drawn) [CBK264499],"viability at 28.5 h, 10 µM",,106%
Cc1ccc(NC(=O)CN2C(=O)S/C(=C\c3ccc4c(c3)n(C)c(=O)n4C)C2=O)cc1 [CBK264501],"viability at 28.5 h, 10 µM",,112%
Cc1ccc(C2C(C(=O)c3ccc(Cl)cc3)=C(O)C(=O)N2CCCN2CCOCC2)o1 (stereo not drawn) [CBK264514],"viability at 28.5 h, 10 µM",,92.6%
O=C(CC1S/C(=N/N=C/c2ccccc2C(=O)O)NC1=O)Nc1ccccc1 (stereo not drawn) [CBK264515],"viability at 28.5 h, 10 µM",,99.7%
COc1ccc(-c2ccc(/C=N/N=C3\NC(=O)C(CC(=O)O)S3)o2)c([N+](=O)[O-])c1 (stereo not drawn) [CBK264516],"viability at 28.5 h, 10 µM",,102%
O=C(Oc1c(Cl)cc(Cl)c2cccnc12)c1cc(S(=O)(=O)N2CCCCC2)ccc1Cl [CBK264518],"viability at 28.5 h, 10 µM",,100%
CN(C)Cc1c(O)ccc2c(=O)c(Oc3ccc(-c4ccccc4)cc3)c(C(F)(F)F)oc12 [CBK264519],"viability at 28.5 h, 10 µM",,107%
CN(C)S(=O)(=O)c1ccc(C(=O)C2=C(O)C(=O)N(CCN3CCOCC3)C2c2ccco2)cc1 (stereo not drawn) [CBK264521],"viability at 28.5 h, 10 µM",,93.4%
O=C(C1=C(O)C(=O)N(Cc2cccnc2)C1c1cccnc1)c1ccccc1 (stereo not drawn) [CBK264522],"viability at 28.5 h, 10 µM",,99.5%
CCCCOC(=O)CCc1nc2ccccc2nc1O [CBK264523],"viability at 28.5 h, 10 µM",,97.3%
NCCCNC(=O)c1ccc(/C=N/O)nc1 [CBK264524],"viability at 28.5 h, 10 µM",,110%
CCCOc1ccc(-c2nn(-c3ccccc3)cc2/C=C2\SC(=S)N(CC(=O)O)C2=O)cc1 [CBK264525],"viability at 28.5 h, 10 µM",,111%

# From PMC12040169 (PLOS Biology, 2025)
